The values that follow come from ChEMBL document CHEMBL1201862, “PubChem BioAssay data set” (2004).

As usually defined, the EC50 is the concentration needed to bring the measured effect to its halfway point. As usually defined, the IC50 is the midpoint of a concentration-inhibition curve. One may read the Ki as a dissociation constant, usually derived from enzyme kinetics or from competition with a known ligand.

Activity calls are given as the source filed them.

Common to all, as to format: functional
For experiment [1], the target named is Multidrug resistance protein CDR2 (Candida albicans (strain SC5314 / ATCC MYA-2876) (Yeast), UniProt P78595). Briefly: CaCDR2 efflux pump inhibitors in yeast, dose response, S. cerevisiae AD1-8u, singleplex, Cherry Pick1 hits (AID 588604).
Sequence of Multidrug resistance protein CDR2 (P78595 whole entry): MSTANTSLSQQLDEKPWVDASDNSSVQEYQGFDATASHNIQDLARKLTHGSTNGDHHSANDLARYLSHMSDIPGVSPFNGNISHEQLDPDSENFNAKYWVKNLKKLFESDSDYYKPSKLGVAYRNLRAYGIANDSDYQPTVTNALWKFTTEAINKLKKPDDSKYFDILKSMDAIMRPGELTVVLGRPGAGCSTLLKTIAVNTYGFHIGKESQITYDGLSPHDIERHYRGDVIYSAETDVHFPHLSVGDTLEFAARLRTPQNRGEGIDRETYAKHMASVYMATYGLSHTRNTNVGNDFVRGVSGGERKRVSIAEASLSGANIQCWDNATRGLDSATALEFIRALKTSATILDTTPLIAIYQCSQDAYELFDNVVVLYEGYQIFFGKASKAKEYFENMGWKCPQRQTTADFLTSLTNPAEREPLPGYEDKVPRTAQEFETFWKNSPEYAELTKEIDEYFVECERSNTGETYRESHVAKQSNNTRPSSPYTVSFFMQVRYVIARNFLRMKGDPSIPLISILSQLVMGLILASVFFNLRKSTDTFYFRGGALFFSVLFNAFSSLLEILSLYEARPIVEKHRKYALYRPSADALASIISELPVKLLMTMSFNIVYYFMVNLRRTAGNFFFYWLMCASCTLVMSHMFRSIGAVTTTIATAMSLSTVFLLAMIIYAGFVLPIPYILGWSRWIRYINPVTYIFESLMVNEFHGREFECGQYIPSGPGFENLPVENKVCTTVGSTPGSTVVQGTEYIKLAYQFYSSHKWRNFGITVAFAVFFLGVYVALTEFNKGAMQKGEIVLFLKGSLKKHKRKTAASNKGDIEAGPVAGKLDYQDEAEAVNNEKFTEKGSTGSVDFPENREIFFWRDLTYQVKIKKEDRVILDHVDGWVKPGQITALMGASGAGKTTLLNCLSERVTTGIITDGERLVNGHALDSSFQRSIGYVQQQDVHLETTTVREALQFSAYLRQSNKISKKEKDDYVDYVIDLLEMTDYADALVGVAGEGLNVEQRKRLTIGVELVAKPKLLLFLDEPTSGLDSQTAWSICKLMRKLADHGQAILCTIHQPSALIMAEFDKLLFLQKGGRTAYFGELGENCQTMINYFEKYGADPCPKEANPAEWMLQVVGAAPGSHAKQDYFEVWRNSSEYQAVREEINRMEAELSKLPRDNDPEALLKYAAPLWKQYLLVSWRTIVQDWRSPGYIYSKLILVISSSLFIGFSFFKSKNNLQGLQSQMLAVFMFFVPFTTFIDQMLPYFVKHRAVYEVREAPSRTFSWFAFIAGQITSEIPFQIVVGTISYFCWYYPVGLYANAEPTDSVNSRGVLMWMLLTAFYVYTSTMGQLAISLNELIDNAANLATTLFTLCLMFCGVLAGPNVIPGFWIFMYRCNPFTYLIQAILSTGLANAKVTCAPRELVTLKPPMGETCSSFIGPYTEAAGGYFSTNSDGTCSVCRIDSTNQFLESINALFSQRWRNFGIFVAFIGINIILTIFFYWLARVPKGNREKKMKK
For experiment [2], the target named is T1, Neuropeptides B/W receptor type 1 (Homo sapiens, UniProt P48145).
T1 sequence (P48145 whole entry): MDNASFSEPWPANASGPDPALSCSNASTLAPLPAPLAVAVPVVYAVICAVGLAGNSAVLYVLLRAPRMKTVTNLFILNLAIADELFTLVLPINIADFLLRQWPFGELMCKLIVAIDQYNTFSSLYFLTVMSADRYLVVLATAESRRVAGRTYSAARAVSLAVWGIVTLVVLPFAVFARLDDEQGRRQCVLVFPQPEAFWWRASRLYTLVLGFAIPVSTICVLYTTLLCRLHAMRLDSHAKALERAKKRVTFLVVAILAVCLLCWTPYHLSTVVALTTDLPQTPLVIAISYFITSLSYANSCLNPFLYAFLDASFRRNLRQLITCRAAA
In words: GPR7 antagonist potency, late-stage follow-up, cell-based, fluorescence, dose response, set 5 (AID 588566).

The target in experiment [3] is Melanin-concentrating hormone receptor 1 (Homo sapiens, UniProt Q99705). In words: Late-stage fluorescence-based counterscreen for antagonists of the G-protein coupled receptor 7 (GPR7): cell-based dose response assay to identify antagonists of the melanin-concentrating hormone receptor 1 (MCHR1) Set 5. On the technique in general: The purpose of a counterscreen is to sort out artefacts and off-target activity.

Experiment [4] has as its target cAMP-dependent protein kinase catalytic subunit PRKX (Homo sapiens, UniProt P51817).
The target in experiment [5] is Cyclin-dependent kinase 8 (Homo sapiens, UniProt P49336). In words: Navigating the Kinome. Panel member name: CDK8.
Experiment [6] has as its target Dual specificity mitogen-activated protein kinase kinase 2 (Homo sapiens, UniProt P36507). Briefly: Navigating the Kinome. Panel member name: MAP2K2.
For experiment [7], the target named is Dual specificity tyrosine-phosphorylation-regulated kinase 1B (Homo sapiens, UniProt Q9Y463). Briefly: Navigating the Kinome. Panel member name: DYRK1B.
For experiment [8], the target named is Dual specificity protein kinase CLK2 (Homo sapiens, UniProt P49760).
The target in experiment [9] is G protein-coupled receptor kinase 5 (Homo sapiens, UniProt P34947). In words: Navigating the Kinome. Panel member name: GPRK5.
Experiment [10] addresses Hepatocyte growth factor receptor (Homo sapiens, UniProt P08581).
Experiment [11] deals with Aurora kinase A (Homo sapiens, UniProt O14965).
In experiment [12] the target is Serine/threonine-protein kinase TBK1 (Homo sapiens, UniProt Q9UHD2). In words: Navigating the Kinome. Panel member name: TBK1.
Experiment [13] deals with Tyrosine-protein kinase JAK2 (Homo sapiens, UniProt O60674).
Sequence of Tyrosine-protein kinase JAK2 (O60674 whole entry): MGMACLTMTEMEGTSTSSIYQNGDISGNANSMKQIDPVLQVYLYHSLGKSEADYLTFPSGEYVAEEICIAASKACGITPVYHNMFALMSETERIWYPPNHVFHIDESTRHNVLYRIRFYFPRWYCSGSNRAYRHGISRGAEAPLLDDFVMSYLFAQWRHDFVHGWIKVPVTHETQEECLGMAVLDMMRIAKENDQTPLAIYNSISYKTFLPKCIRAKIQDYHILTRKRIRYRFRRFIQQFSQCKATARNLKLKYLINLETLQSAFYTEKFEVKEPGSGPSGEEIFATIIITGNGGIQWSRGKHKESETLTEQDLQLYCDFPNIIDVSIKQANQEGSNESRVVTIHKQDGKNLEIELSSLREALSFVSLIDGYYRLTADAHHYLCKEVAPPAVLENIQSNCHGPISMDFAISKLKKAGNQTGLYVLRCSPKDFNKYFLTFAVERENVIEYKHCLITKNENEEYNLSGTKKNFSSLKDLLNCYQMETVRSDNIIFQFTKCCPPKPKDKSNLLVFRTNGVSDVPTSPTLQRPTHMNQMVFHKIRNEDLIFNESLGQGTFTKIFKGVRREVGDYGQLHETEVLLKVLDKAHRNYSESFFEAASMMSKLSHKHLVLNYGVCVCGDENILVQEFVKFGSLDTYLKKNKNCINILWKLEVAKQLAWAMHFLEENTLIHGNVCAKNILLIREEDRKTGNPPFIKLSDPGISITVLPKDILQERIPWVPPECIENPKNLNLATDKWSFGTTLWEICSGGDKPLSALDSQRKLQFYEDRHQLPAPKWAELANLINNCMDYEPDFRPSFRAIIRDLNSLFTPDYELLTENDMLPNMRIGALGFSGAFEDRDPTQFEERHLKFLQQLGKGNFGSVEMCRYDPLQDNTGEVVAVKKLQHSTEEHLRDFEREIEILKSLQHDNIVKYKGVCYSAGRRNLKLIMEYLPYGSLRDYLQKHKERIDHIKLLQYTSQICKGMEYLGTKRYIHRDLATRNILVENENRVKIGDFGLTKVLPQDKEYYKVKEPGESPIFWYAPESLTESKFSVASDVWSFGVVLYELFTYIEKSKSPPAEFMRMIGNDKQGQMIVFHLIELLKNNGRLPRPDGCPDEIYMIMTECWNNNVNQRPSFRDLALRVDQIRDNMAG
For experiment [14], the target named is Leukocyte tyrosine kinase receptor (Homo sapiens, UniProt P29376). Briefly: Navigating the Kinome. Panel member name: LTK.
Experiment [15] addresses Protein kinase C theta type (Homo sapiens, UniProt Q04759). In words: Navigating the Kinome. Panel member name: PRKCQ.
In experiment [16] the target is LIM domain kinase 1 (Homo sapiens, UniProt P53667). In words: Navigating the Kinome. Panel member name: LIMK1.
In experiment [17] the target is Aurora kinase B (Homo sapiens, UniProt Q96GD4).
Experiment [18] has as its target Insulin-like growth factor 1 receptor (Homo sapiens, UniProt P08069). In words: Navigating the Kinome. Panel member name: IGF1R.
Experiment [19] concerns the target Ribosomal protein S6 kinase alpha-3 (Homo sapiens, UniProt P51812).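 Also: measured within a kinome-wide profiling panel.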
Experiment [20] has as its target Serine/threonine-protein kinase D3 (Homo sapiens, UniProt O94806).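 Also: determined within a kinase panel screen, with PRKCN as the panel member.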
Experiment [21] concerns the target Mitogen-activated protein kinase kinase kinase kinase 4 (Homo sapiens, UniProt O95819).
In experiment [22] the target is Tyrosine-protein kinase JAK3 (Homo sapiens, UniProt P52333).
Experiment [23] deals with Mitogen-activated protein kinase 9 (Homo sapiens, UniProt P45984).
For experiment [24], the target named is Dual specificity tyrosine-phosphorylation-regulated kinase 1A (Homo sapiens, UniProt Q13627).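 Also: measured against DYRK1A as one member of a broad kinome profiling panel.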
The target of experiment [25] is Death-associated protein kinase 3 (Homo sapiens, UniProt O43293).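 Also: measured as one member of a kinome-wide profiling panel.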
Experiment [26] addresses Mitogen-activated protein kinase kinase kinase kinase 2 (Homo sapiens, UniProt Q12851).
Experiment [27] has as its target Receptor-type tyrosine-protein kinase FLT3 (Homo sapiens, UniProt P36888).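 Also: FLT3 was tested as one member of a kinome-wide kinase panel.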
Experiment [28] has as its target Inhibitor of nuclear factor kappa-B kinase subunit epsilon (Homo sapiens, UniProt Q14164). Briefly: Navigating the Kinome. Panel member name: IKBKE.
Experiment [29] has as its target Leucine-rich repeat serine/threonine-protein kinase 2 (Homo sapiens, UniProt Q5S007).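 Also: value from a broad kinome-wide panel profiling study in which LRRK2 was one of the kinases tested.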
In experiment [30] the target is Serine/threonine-protein kinase Chk1 (Homo sapiens, UniProt O14757).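 Also: measured as one member of a kinome-wide kinase profiling panel.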
The target in experiment [31] is Tyrosine-protein kinase ABL1 (Homo sapiens, UniProt P00519).
Sequence of Tyrosine-protein kinase ABL1 (P00519 whole entry): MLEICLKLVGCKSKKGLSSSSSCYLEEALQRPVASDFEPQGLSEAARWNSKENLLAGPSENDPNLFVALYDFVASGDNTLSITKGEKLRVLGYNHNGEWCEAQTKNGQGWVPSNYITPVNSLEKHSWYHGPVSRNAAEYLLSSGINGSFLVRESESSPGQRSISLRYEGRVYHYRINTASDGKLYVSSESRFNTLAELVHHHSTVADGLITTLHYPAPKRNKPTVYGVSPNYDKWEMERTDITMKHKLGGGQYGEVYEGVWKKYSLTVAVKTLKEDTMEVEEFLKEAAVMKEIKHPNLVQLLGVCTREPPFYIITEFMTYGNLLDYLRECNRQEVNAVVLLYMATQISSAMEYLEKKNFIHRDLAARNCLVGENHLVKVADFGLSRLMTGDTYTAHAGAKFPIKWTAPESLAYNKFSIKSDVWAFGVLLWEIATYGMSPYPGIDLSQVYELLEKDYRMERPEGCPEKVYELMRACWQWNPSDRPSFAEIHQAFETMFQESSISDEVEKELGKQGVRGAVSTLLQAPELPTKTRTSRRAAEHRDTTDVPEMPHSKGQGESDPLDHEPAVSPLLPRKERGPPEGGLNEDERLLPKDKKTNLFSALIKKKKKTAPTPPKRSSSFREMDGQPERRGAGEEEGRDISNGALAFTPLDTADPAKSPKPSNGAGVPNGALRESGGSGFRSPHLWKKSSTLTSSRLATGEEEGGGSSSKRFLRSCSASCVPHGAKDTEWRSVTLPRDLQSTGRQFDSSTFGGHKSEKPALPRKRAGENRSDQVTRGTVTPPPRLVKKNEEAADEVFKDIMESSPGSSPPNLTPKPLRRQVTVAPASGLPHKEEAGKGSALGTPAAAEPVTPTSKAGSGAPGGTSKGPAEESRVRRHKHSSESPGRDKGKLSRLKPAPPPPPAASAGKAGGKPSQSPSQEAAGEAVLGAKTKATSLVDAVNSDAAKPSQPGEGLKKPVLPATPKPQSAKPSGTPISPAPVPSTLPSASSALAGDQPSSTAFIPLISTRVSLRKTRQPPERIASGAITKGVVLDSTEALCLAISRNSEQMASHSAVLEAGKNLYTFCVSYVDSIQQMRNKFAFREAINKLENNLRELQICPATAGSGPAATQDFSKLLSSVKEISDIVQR
The target in experiment [32] is cAMP-dependent protein kinase catalytic subunit alpha (Homo sapiens, UniProt P17612).
The target of experiment [33] is Platelet-derived growth factor receptor alpha (Homo sapiens, UniProt P16234). Briefly: Navigating the Kinome. Panel member name: PDGFRA.
The target in experiment [34] is Activin receptor type-1 (Homo sapiens, UniProt Q04771). Briefly: Navigating the Kinome. Panel member name: ACVR1.
Experiment [35] addresses Glycogen synthase kinase-3 beta (Homo sapiens, UniProt P49841).
Experiment [36] addresses Proto-oncogene tyrosine-protein kinase receptor Ret (Homo sapiens, UniProt P07949).
The target of experiment [37] is Mitogen-activated protein kinase 8 (Homo sapiens, UniProt P45983).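 Also: value comes from one member of a kinome-wide kinase profiling panel.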
The target in experiment [38] is Vascular endothelial growth factor receptor 2 (Homo sapiens, UniProt P35968).
Experiment [39] concerns the target BDNF/NT-3 growth factors receptor (Homo sapiens, UniProt Q16620).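 Also: NTRK2 measured as one member of a broad kinome-wide kinase profiling panel.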
Experiment [40] concerns the target Serine/threonine-protein kinase TAO1 (Homo sapiens, UniProt Q7L7X3).
The target of experiment [41] is Dual specificity protein kinase CLK4 (Homo sapiens, UniProt Q9HAZ1).
The target of experiment [42] is Serine/threonine-protein kinase Nek2 (Homo sapiens, UniProt P51955).
The target in experiment [43] is Macrophage colony-stimulating factor 1 receptor (Homo sapiens, UniProt P07333).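 Also: value comes from the Navigating the Kinome screening panel, CSF1R member.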
The target in experiment [44] is Activated CDC42 kinase 1 (Homo sapiens, UniProt Q07912). In words: Navigating the Kinome. Panel member name: ACK1.
For experiment [45], the target named is Serine/threonine-protein kinase pim-1 (Homo sapiens, UniProt P11309).
The target in experiment [46] is Tyrosine-protein kinase receptor TYRO3 (Homo sapiens, UniProt Q06418).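 Also: TYRO3 value obtained as one member of a kinome-wide profiling panel.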
For experiment [47], the target named is Calcium/calmodulin-dependent protein kinase type II subunit alpha (Homo sapiens, UniProt Q9UQM7). Briefly: Navigating the Kinome. Panel member name: CAMK2A.
For experiment [48], the target named is Glycogen synthase kinase-3 alpha (Homo sapiens, UniProt P49840).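 Also: GSK3A result taken from a broad kinome-wide kinase panel.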
Experiment [49] concerns the target Rho-associated protein kinase 1 (Homo sapiens, UniProt Q13464).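 Also: measured within a broad kinome-wide panel profiling many kinases.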
The target in experiment [50] is Mitogen-activated protein kinase 14 (Homo sapiens, UniProt Q16539).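 Also: part of a kinome-wide panel, MAPK14 entry.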
Experiment [51] deals with Macrophage-stimulating protein receptor (Homo sapiens, UniProt Q04912). Briefly: Navigating the Kinome. Panel member name: MST1R.
Experiment [52] deals with Vascular endothelial growth factor receptor 1 (Homo sapiens, UniProt P17948).
Experiment [53] has as its target Cyclin-dependent kinase 9 (Homo sapiens, UniProt P50750).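 Also: value from the CDK9 entry of a kinome-spanning kinase panel.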
Experiment [54] has as its target Casein kinase I isoform alpha (Homo sapiens, UniProt P48729).
Experiment [55] concerns the target 5'-AMP-activated protein kinase catalytic subunit alpha-1 (Homo sapiens, UniProt Q13131).
The target in experiment [56] is Fibroblast growth factor receptor 1 (Homo sapiens, UniProt P11362).
Experiment [57] addresses Cyclin-dependent kinase 7 (Homo sapiens, UniProt P50613).
The target of experiment [58] is Serine/threonine-protein kinase PAK 4 (Homo sapiens, UniProt O96013).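 Also: value obtained within a kinome profiling panel in which PAK4 was one of the panel members.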
The target in experiment [59] is Dual specificity mitogen-activated protein kinase kinase 1 (Homo sapiens, UniProt Q02750). In words: Navigating the Kinome. Panel member name: MAP2K1.
Experiment [60] concerns the target Cyclin-dependent kinase 5 (Homo sapiens, UniProt Q00535).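 Also: CDK5 measured as one member of a kinase profiling panel.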
Experiment [61] addresses Tyrosine-protein kinase Fyn (Homo sapiens, UniProt P06241).
Experiment [62] has as its target ALK tyrosine kinase receptor (Homo sapiens, UniProt Q9UM73).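 Also: ALK tested as one member of a kinase panel screen.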

Sequence of Casein kinase I isoform alpha (P48729 whole entry, canonical isoform): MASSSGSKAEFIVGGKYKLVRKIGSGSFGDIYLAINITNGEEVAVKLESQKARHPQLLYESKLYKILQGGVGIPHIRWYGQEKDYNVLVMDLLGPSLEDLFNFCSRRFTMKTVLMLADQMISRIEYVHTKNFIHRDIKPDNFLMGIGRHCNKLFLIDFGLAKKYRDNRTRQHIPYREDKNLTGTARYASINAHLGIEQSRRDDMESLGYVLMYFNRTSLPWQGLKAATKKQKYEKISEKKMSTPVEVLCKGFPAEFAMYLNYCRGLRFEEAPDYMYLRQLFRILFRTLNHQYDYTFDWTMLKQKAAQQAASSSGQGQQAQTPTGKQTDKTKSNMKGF
Sequence of Serine/threonine-protein kinase D3 (O94806 whole entry): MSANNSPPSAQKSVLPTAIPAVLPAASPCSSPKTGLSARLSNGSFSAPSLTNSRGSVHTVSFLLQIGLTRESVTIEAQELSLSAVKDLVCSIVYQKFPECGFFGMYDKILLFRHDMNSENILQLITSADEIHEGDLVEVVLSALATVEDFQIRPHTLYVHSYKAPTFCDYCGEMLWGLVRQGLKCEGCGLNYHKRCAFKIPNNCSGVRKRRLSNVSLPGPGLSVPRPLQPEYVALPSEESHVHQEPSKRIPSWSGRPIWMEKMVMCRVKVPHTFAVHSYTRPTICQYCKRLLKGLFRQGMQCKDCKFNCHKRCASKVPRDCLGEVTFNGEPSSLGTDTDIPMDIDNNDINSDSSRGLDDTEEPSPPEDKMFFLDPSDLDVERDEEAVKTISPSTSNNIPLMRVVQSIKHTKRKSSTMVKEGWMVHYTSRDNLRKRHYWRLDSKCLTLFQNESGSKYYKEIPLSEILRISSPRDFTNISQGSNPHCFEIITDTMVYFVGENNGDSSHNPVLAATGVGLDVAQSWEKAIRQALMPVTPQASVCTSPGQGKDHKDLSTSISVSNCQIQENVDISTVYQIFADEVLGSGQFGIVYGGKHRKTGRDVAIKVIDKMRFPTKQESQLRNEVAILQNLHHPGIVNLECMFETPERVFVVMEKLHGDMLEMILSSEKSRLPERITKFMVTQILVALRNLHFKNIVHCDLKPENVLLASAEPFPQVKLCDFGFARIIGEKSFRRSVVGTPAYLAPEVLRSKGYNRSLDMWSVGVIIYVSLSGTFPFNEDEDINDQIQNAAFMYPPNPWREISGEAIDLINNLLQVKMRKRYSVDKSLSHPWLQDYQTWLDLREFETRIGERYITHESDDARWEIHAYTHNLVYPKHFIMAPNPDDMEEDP

With `O=C(/C=C/c1ccccc1[N+](=O)[O-])NCCc1ccc(F)cc1`, in experiment [1], the EC50 was 25.8 µM (active).
Take `COc1ccc([S+]([O-])c2c(Cl)cnn(Cc3cccc4ccccc34)c2=O)cc1` (configuration not stated): the IC50 in [2] is 6.18 µM (active); in experiment [3], 5.86 µM (active).
For the compound `COc1ccccc1CNC(=N)Nc1nccc(-c2cccs2)n1`, the Ki is > 3.16 µM (inactive) in experiment [4]; > 3.98 µM (inactive) in [5]; > 3.98 µM (inactive) in experiment [6]; 0.398 µM (active) in experiment [7]; 3.16 µM (active) in experiment [8]; > 3.98 µM (inactive) in experiment [9]. Also, the Ki in experiment [10] is > 2.51 µM (inactive); in [11], > 1.58 µM (inactive); in [12] it was > 3.16 µM (inactive); in experiment [13], > 2.51 µM (inactive); in experiment [14], > 2.51 µM (inactive); in experiment [15], > 2.51 µM (inactive). Further, the Ki in experiment [16] is > 3.16 µM (inactive); in experiment [17], > 3.98 µM (inactive); in [18], > 2.51 µM (inactive); in experiment [19] it was > 3.98 µM (inactive); in [20], > 3.98 µM (inactive); in experiment [21], > 5.01 µM (inactive). The Ki in experiment [22] is > 5.01 µM (inactive); in [23], > 3.98 µM (inactive); in [24], 1.58 µM (active); in [25], > 5.01 µM (inactive); in experiment [26], > 2.51 µM (inactive); in [27], > 3.16 µM (inactive). Further, the Ki in experiment [28] is > 3.16 µM (inactive); in [29], > 2.51 µM (inactive); in experiment [30], > 3.16 µM (inactive); in experiment [31] it was > 2.51 µM (inactive); in [32], > 1.26 µM (inactive); in experiment [33], > 2.51 µM (inactive). For the same compound, the Ki in experiment [34] was > 3.98 µM (inactive); in experiment [35], 2.51 µM (active); in experiment [36], > 3.16 µM (inactive); in experiment [37] it was > 5.01 µM (inactive); in experiment [38], > 2.51 µM (inactive); in [39], > 3.98 µM (inactive). Further, the Ki in experiment [40] was 5.01 µM (active); in experiment [41], 0.316 µM (active); in experiment [42], > 3.16 µM (inactive); in [43], > 2.51 µM (inactive); in experiment [44], > 3.98 µM (inactive); in experiment [45], > 6.31 µM (inactive). Moreover, the Ki is > 3.16 µM (inactive) in [46]; > 3.98 µM (inactive) in [47]; 1.26 µM (active) in experiment [48]; > 3.98 µM (inactive) in experiment [49]; > 3.98 µM (inactive) in experiment [50]; > 3.98 µM (inactive) in experiment [51]. Besides, the Ki in experiment [52] is > 3.98 µM (inactive); in experiment [53] it was 0.1 µM (active); in experiment [54], > 3.98 µM (inactive); in [55], > 3.16 µM (inactive); in experiment [56], > 3.98 µM (inactive); in experiment [57], > 3.98 µM (inactive). In addition, the Ki was > 5.01 µM (inactive) in experiment [58]; > 3.16 µM (inactive) in experiment [59]; 0.126 µM (active) in experiment [60]; > 6.31 µM (inactive) in experiment [61]; > 6.31 µM (inactive) in [62].
